According to PubChem BioAssay AID222 (DTP/NCI, 2004):
“And” between values parts separate entries of the source, which are not always exact repeats. Equal values may be shown once. Toxic doses and inconclusive results are not listed.

Test system: C57BL/6 mice, intracerebral ependymoblastoma, median survival T/C
Assay: NCI In Vivo Anticancer Drug Screen. Data for tumor model Ependymoblastoma (intracerebral) in C57BL/6 mice
Conditions: endpoint: median survival time, higher = longer survival
Description: The antitumor activity of compounds was measured in mice bearing transplantable tumors. Survival or tumor size were measured and the results are expressed as the measurement made in the treated group (T) divided by the measurement made in the vehicle treated control group (C). The tumor model used in this assay is Ependymoblastoma (intracerebral) in C57BL/6 mice

COC(=O)[C@@]12OC[C@]34[C@H]([C@@H](O)[C@@H]1O)[C@@]1(C)CC(=O)C(O)=C(C)[C@@H]1C[C@H]3OC(=O)[C@H](OC(=O)/C=C(\C)C(C)C)[C@@H]24
T/C (dose: 0.03 mg/kg/injection, schedule: Q01DX005 (ip), vehicle: Klucel (hydroxypropylcellulose) (HPC)): 92 % of control and 110 % of control | T/C (dose: 0.06 mg/kg/injection, schedule: Q01DX005 (ip), vehicle: Klucel (hydroxypropylcellulose) (HPC)): 109 % of control and 116 % of control | T/C (dose: 0.12 mg/kg/injection, schedule: Q01DX005 (ip), vehicle: Klucel (hydroxypropylcellulose) (HPC)): 101 % of control and 107 % of control | T/C (dose: 0.25 mg/kg/injection, schedule: Q01DX005 (ip), vehicle: Klucel (hydroxypropylcellulose) (HPC)): 104 % of control and 109 % of control | T/C (dose: 0.5 mg/kg/injection, schedule: Q01DX005 (ip), vehicle: Klucel (hydroxypropylcellulose) (HPC)): 93 % of control and 117 % of control | T/C (dose: 1.0 mg/kg/injection, schedule: Q01DX005 (ip), vehicle: Klucel (hydroxypropylcellulose) (HPC)): 95 % of control | T/C (dose: 31.2 micrograms/kg/injection, schedule: Q01DX005 (ip), vehicle: saline + alcohol): 86 % of control | T/C (dose: 62.5 micrograms/kg/injection, schedule: Q01DX005 (ip), vehicle: saline + alcohol): 99 % of control | T/C (dose: 125.0 micrograms/kg/injection, schedule: Q01DX005 (ip), vehicle: saline + alcohol): 94 % of control | T/C (dose: 250.0 micrograms/kg/injection, schedule: Q01DX005 (ip), vehicle: saline + alcohol): 108 % of control | T/C (dose: 500.0 micrograms/kg/injection, schedule: Q01DX005 (ip), vehicle: saline + alcohol): 87 % of control | T/C (dose: 1000.0 micrograms/kg/injection, schedule: Q01DX005 (ip), vehicle: saline + alcohol): 99 % of control

OCCN1CCN(CC/C=C2/c3ccccc3Sc3ccc(C(F)(F)F)cc32)CC1
T/C (dose: 12.5 mg/kg/injection, schedule: Q04DX003 (ip), vehicle: saline): 115 % of control | T/C (dose: 25.0 mg/kg/injection, schedule: Q04DX003 (ip), vehicle: saline): 117 % of control

NC(=O)N(CCCl)N=O
T/C (dose: 0.5 mg/kg/injection, schedule: Q01DX005 (ip), vehicle: saline + alcohol): 118 % of control | T/C (dose: 2.0 mg/kg/injection, schedule: Q01DX005 (ip), vehicle: saline + alcohol): 276 % of control

O=NN(CCF)C(=O)NC1CCCCC1
T/C (dose: 10.0 mg/kg/injection, schedule: Q01DX005 (ip), vehicle: suspension in saline): 123 % of control | T/C (dose: 20.0 mg/kg/injection, schedule: Q01DX005 (ip), vehicle: suspension in saline): 262 % of control

O=P1(NCCCl)OCCC(OO)N1CCCl (stereo not given)
T/C (dose: 40.0 mg/kg/injection, schedule: Q01DX001 (ip), vehicle: Klucel (hydroxypropylcellulose) (HPC)): 121 % of control | T/C (dose: 80.0 mg/kg/injection, schedule: Q01DX001 (ip), vehicle: Klucel (hydroxypropylcellulose) (HPC)): 121 % of control | T/C (dose: 160.0 mg/kg/injection, schedule: Q01DX001 (ip), vehicle: Klucel (hydroxypropylcellulose) (HPC)): 151 % of control

c1cc2n(n1)CCN2
T/C (dose: 32.0 mg/kg/injection, schedule: Q01DX005 (ip), vehicle: saline): 108 % of control | T/C (dose: 64.0 mg/kg/injection, schedule: Q01DX005 (ip), vehicle: saline): 100 % of control | T/C (dose: 128.0 mg/kg/injection, schedule: Q01DX005 (ip), vehicle: saline): 102 % of control

O=NN(CCCl)C(=O)NC1CCCCC1
T/C (dose: 8.0 mg/kg/injection, schedule: Q01DX001 (ip), vehicle: Klucel (hydroxypropylcellulose) (HPC)): 106 % of control | T/C (dose: 8.0 mg/kg/injection, schedule: Q01DX005 (oral), vehicle: Klucel (hydroxypropylcellulose) (HPC)): 155 % of control | T/C (dose: 16.0 mg/kg/injection, schedule: Q01DX001 (ip), vehicle: Klucel (hydroxypropylcellulose) (HPC)): 105 % of control | T/C (dose: 16.0 mg/kg/injection, schedule: Q01DX001 (oral), vehicle: Klucel (hydroxypropylcellulose) (HPC)): 111 % of control | T/C (dose: 16.0 mg/kg/injection, schedule: Q01DX005 (oral), vehicle: Klucel (hydroxypropylcellulose) (HPC)): 311 % of control | T/C (dose: 32.0 mg/kg/injection, schedule: Q01DX001 (ip), vehicle: Klucel (hydroxypropylcellulose) (HPC)): 98 % of control and 111 % of control | T/C (dose: 32.0 mg/kg/injection, schedule: Q01DX001 (oral), vehicle: Klucel (hydroxypropylcellulose) (HPC)): 113 % of control | T/C (dose: 32.0 mg/kg/injection, schedule: Q01DX005 (oral), vehicle: Klucel (hydroxypropylcellulose) (HPC)): 310 % of control | T/C (dose: 64.0 mg/kg/injection, schedule: Q01DX001 (ip), vehicle: Klucel (hydroxypropylcellulose) (HPC)): 104 % of control and 106 % of control | T/C (dose: 64.0 mg/kg/injection, schedule: Q01DX001 (oral), vehicle: Klucel (hydroxypropylcellulose) (HPC)): 113 % of control | T/C (dose: 128.0 mg/kg/injection, schedule: Q01DX001 (ip), vehicle: Klucel (hydroxypropylcellulose) (HPC)): 95 % of control | T/C (dose: 128.0 mg/kg/injection, schedule: Q01DX001 (oral), vehicle: Klucel (hydroxypropylcellulose) (HPC)): 100 % of control | T/C (dose: 256.0 mg/kg/injection, schedule: Q01DX001 (ip), vehicle: Klucel (hydroxypropylcellulose) (HPC)): 108 % of control | T/C (dose: 256.0 mg/kg/injection, schedule: Q01DX001 (oral), vehicle: Klucel (hydroxypropylcellulose) (HPC)): 104 % of control | T/C (dose: 512.0 mg/kg/injection, schedule: Q01DX001 (ip), vehicle: Klucel (hydroxypropylcellulose) (HPC)): 95 % of control | T/C (dose: 512.0 mg/kg/injection, schedule: Q01DX001 (oral), vehicle: Klucel (hydroxypropylcellulose) (HPC)): 97 % of control
